# Values of other authors, collected in US6506390B2, “Progestogen-anti-progestogen regimens” (Akzo Nobel, priority 1996, dated 2003).
# Experiments:
# [1] = based on practically applied doses; for relative potency in progestogenic activity: levonorgestrel, desogestrel and 3-keto-desogestrel compared with each other
# [2] = as an approximation
smiles,measurement,setting,value
C#C[C@]1(O)CC[C@H]2[C@@H]3CCC4=CC(=O)CC[C@@H]4[C@H]3C(=C)C[C@@]21CC [3-keto-desogestrel],relative potency in progestogenic activity,[1],relatively equipotent
"C#C[C@]1(O)C=C[C@H]2[C@@H]3CCC4=CC(=O)CC[C@@H]4[C@H]3CC[C@@]21CC [Gestodene, gestodene]","potency relative to levonorgestrel, desogestrel and 3-keto-desogestrel",[1]; progestogenic activity,approximately 1.5 times
"C#CC1(O)CC[C@H]2[C@@H]3CCC4=CC(=O)CC[C@@H]4[C@H]3CC[C@@]21CC (some centres unmarked) [Norgestrel, norgestrel]",potency relative to levonorgestrel,[1]; progestogenic activity,about one-half
"C#C[C@]1(O)CC[C@H]2[C@@H]3CCC4=CCCC[C@@H]4[C@H]3C(=C)C[C@@]21CC [desogestrel, 13-ethyl-11-methylene-18,19-di-nor-17α-pregn-4-en-20-yn-17-ol]",relative potency in progestogenic activity,[1],relatively equipotent
"C#C[C@]1(O)CC[C@H]2[C@@H]3CCc4cc(OC)ccc4[C@H]3CC[C@@]21C [mestranol, 17-α-ethinyl estradiol 3-methylether]",amount equivalent in estrogenic activity to 1 mg of 17β-estradiol,[2],~0.030 mg
